Source: patent US11661259B2, “Apparatus, arrangement and method for providing skin care ingredients” (MEMORIAL SLOAN-KETTERING CANCER CENTER, priority 2013, dated 2023)

Key:
[1] = Decay of vitamin stored in liquid solution (loss of initial activity); conditions: dissolved in a liquid solution, stored in a closed and dark container, after 60 days
[2] = Time required to completely dissolve Vitamin C powder in water; assay type: physicochemical
From the text: 1. Determine the amount of time required to completely dissolve Vitamin C powder with 12 to 15 cc of water. In general, it requires 45 to 120 seconds to completely dissolve 1% to 15% Vitamin C powder in water.

O=C1O[C@H]([C@@H](O)CO)C(O)=C1O [Vitamin C, L-ascorbic acid]
loss of initial activity [1]: ~72% | Time to completely dissolve ([2]; 1% to 15% Vitamin C powder in water): 45 to 120 s | Time to completely dissolve ([2]; 1 wt % Vitamin C, 151 mg in 15 g water): 60 s | Time to completely dissolve ([2]; 5 wt % Vitamin C, 526 mg in 12 g water): 45 s | Time to completely dissolve ([2]; 10 wt % Vitamin C, 1107 mg in 12 g water): 75 s | Time to completely dissolve ([2]; 15 wt % Vitamin C, 1765 mg in 12 g water): 120 s | Time to completely dissolve ([2]; 20 wt % Vitamin C, 2496 mg in 12 g water): 210 s

tocopherol [Vitamin E]
loss of initial activity [1]: ~35%
